Measured values taken from patent US12643102B2, “Method of profiling a sample comprising a plurality of cells and a system for performing the same” (Massachusetts Institute of Technology, priority 2020, dated 2026).

Test system: WBCs from whole blood
Experiment: DLD assay: WBC biophysical profiling (size Dapp, deformability CDMdot) after in vitro activation of whole blood
Format: cell-based
Conditions: for WBC Dapp (average of L and L^-1 DLD assays): 2 hours incubation, undiluted whole blood at 37° C., 2.5 μL/min, n=5, healthy baseline 9.7±0.1 μm; for increase in WBC Dapp: 2 hours, versus healthy baseline
Method: The open reservoirs 102A, 102B and 102C facilitate easy sample loading, sample resuspension to prevent settling of cells and washing the reservoir to reuse the device. The required loaded volume per run is 10 μL and the reservoir can hold up to 25 μL of blood. As the fluid is withdrawn, the sample flows through a region comprising 21 DLD device segments sandwiched between two 1× phosphate-buffered saline (PBS) buffer streams (see Table 2). Each segment comprises an array of pillars and has a specific DLD critical cut-off size (Dc) determined by the empirical Equation (1): […]
where G is the regular spacing between pillars and θ is the gradient of the pillar array. This design is known as a chirped DLD array where each downstream segment has an increasing pillar row-shift gradient corresponding to an increasing Dc ranging from 6.0 to 16.0 μm in steps of 0.5 μm (see Methods). Immune cells flowing through the device 100 are deflected laterally only within DLD segments where cell sizes are larger than Dc; the cells therefore exit the device 100 at defined lateral positions depicted in the output region shown in FIG. 1A. The output of the sorting forms a spectrum in its size distribution (i.e., a biophysical parameter based on a distribution profile of the cells sorted by the array of pillars).
To evaluate the biophysical combinatorial immune profiling potential of DLD assay, a single biophysical size and deformability parameter is determined. For size parameters, the average Dapp for L and L^−1 assays was quantified at 2.5 μL/min, while a single cell deformability parameter (CDMdot) was emphasized by taking the product of the CDML and CDML^−1 measurements. Performing a product amplifies the deformability differences compared to CDML and CDML^−1 measurements individually (see FIG. 8). By combining the measurements of two DLD devices, a unique leukocyte biophysical fingerprint as a profiling tool to measure different states of WBC from whole blood in real-time was envisioned (see FIG. 1B).
Direct sample measurements enable the study of WBC biophysical profiles in different health states of an individual for healthy donors, patients admitted to the ED without signs of infection (ED Control), and patients with clear signs of infection and fulfilling at least two SIRS criteria (ED≥2 SIRS) (See Table 3). The second group are tests performed on blood, which have undergone external or in vitro test conditions to activate the WBCs. These include 5 ng/ml lipopolysaccharide (LPS), which mimics the bacteria coat that would trigger inflammation and phorbol 12-myristate 13-acetate (PMA) at 100 and 1000 nM, a known activator of WBCs. […]

With CCCCCCCCCCCCCC(=O)O[C@@H]1[C@@H](C)[C@@]2(O)[C@@H](C=C(CO)C[C@]3(O)C(=O)C(C)=C[C@@H]23)[C@@H]2C(C)(C)[C@]12OC(C)=O [PMA, phorbol 12-myristate 13-acetate] the “WBC Dapp (average of L and L^-1 DLD assays)” value (PMA 100 nM) was 12.6±0.8 μm, the “increase in WBC Dapp” value (PMA 100 nM) was 30% and the “WBC Dapp (average of L and L^-1 DLD assays)” value (PMA 1000 nM) was 13.9±0.7 μm. For the same compound, the “increase in WBC Dapp” value (PMA 1000 nM) was 43%.
